Test results: US11673889B2, “Substituted imidazo[4,5-c][1,8]naphthyridines as phosphodiesterase inhibitors” (Nanjing Zhengxiang Pharmaceuticals Co., Ltd., priority 2019, dated 2023)

Key:
ENPP-1, MDA-MB-231 cells = target: T1, ENPP-1, MDA-MB-231 cells (Homo sapiens, UniProt P22413); assay: cell-based; conditions: for inhibition at 20 µM: MDA-MB-231, read-out: % Inhibition (at 20 μM)
T1 sequence (P22413 1-925): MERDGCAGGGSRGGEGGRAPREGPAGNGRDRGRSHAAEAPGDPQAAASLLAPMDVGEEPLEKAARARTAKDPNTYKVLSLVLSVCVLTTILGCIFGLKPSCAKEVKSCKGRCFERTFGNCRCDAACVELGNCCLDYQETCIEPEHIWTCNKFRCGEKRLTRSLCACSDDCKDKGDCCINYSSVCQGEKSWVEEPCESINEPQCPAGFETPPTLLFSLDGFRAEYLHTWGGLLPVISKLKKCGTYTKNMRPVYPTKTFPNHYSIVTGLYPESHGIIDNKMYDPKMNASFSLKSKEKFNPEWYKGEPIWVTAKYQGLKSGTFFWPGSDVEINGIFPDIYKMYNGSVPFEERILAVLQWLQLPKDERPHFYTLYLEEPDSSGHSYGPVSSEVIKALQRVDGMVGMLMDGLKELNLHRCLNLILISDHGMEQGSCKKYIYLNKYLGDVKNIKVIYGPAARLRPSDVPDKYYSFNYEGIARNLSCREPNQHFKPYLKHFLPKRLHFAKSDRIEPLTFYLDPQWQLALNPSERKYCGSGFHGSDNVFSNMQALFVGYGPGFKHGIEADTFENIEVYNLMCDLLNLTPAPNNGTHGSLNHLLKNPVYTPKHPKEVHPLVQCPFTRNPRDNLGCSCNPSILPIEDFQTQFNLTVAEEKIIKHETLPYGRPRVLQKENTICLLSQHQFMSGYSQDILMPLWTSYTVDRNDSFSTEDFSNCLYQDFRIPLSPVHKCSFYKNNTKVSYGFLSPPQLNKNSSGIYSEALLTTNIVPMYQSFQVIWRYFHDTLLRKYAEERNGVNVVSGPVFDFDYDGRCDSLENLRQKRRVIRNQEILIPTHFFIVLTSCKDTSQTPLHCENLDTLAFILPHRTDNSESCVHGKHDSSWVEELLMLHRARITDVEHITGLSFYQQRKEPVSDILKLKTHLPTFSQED
Experimental: ENPP-1 were mainly expressed on the surface of cell membrane where it hydrolytes 2′3′-cGAMP to generate 5′-GMP and 5′-AMP. ENPP-1 also has the ability to hydrolyzes artificial phosphoric acid ester TMP-pNP to nucleotide-5′-monophosphate and p-nitrophcnol there, which is a chromogenic product.
8 point of different concentrations of each inhibitor were prepared with the final assay concentrations starting at 20 μM. 3× series dilution by DMEM medium without FBS was applied. Prior to adding inhibitors, 75000 cells per well were incubated at 37° C., 5% CO2 in DMEM for 24 hours. After removing the supernatant medium, 50 μL inhibitor solution was added into each well with cultured cells and incubate at 37° C., 5% CO2 for 60 minutes.
(§1) The IC50 values for percent inhibition versus compound concentration are determined by fitting the inhibition curves using a four-parameter variable slope model in GraphPad Prism® 8.

human soluble ENPP1 [1] = target: T2, human soluble ENPP1 (Homo sapiens, UniProt P22413); assay: ENPP1 activity assay using p-Nitrophenyl-5′-AMP as a substrate; format: biochemical
T2 construct: 20 ng of human soluble ENPP1
T2 sequence (P22413 103-925 limits assumed): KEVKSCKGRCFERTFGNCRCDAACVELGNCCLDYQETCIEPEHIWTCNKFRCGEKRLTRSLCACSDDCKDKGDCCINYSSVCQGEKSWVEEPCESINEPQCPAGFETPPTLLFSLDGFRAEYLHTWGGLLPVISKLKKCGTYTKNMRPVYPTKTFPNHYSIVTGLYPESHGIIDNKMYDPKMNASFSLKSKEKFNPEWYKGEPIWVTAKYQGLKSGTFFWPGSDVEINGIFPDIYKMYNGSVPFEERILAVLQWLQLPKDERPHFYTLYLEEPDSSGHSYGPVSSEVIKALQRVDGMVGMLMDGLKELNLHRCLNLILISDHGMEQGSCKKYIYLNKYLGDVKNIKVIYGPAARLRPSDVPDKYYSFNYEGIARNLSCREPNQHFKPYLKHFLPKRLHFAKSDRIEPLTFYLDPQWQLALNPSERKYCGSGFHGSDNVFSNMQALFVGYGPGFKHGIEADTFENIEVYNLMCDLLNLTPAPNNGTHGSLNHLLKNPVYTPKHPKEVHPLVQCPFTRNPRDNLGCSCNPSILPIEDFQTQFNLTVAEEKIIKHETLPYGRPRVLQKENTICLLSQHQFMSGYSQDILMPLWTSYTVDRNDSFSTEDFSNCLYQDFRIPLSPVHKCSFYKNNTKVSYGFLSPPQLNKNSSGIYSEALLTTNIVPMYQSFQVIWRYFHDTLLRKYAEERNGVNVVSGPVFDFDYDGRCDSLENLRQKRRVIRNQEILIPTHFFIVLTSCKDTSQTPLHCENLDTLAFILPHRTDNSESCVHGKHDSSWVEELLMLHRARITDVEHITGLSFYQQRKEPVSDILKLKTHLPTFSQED
Experimental: AMP-pNP can be used as substrate of ENPP-1. Its hydrolysis products were nucleotide-5′-monophosphate and p-nitrophcnol, which is also a chromogenic product. The amount of p-nitrophenol product formed is measured using its absorbance at 405 nm, which is directly proportional to enzyme activity.
Load into a well with […] of human soluble ENPP1 in 50 μL and incubate at room temperature with 25 μL inhibitor solution (4× Final Concentration) for 30 mins prior adding 25 μL 3 mM AMP solution (2× Final Concentration) into the well, Incubate at RT for 1 hour. The amounts of released p-nitrophenolate were measured by reading OD value at 405 nm.
(§2) The percent inhibition at each compound is calculated as follows: % inhibition=(ODMAX−ODCOMPOUND)/(ODMAX−ODMIN)*100. (MAX: absence of ENPP1 inhibitors control, MIN: blank control.)
as §1

human soluble ENPP1 [2] = target: T2, human soluble ENPP1; assay: ENPP1 activity assay using p-Nitrophenyl-5′-TMP as a substrate; format: biochemical
Experimental: ENPP1 is a transmembrane glycoprotein that hydrolyzes nucleotides and nucleotide derivatives with the formation of nucleotide-5′-monophosphates. ENPP1 hydrolyzes artificial phosphoric acid ester thymidine 5′monophosphate p-nitrophenyl ester (TMP-pNP) to nucleotide-5′-monophosphate and p-nitrophenol, which is a chromogenic product.
Load into a well with 20 ng of human soluble ENPP1 in 50 μL and incubate at room temperature with 25 μL inhibitor solution (4× Final Concentration) for 30 mins. Then, add 25 μL 2 mM TMP solution (2× Final Concentration) into the well, Incubate at RT for 1 hour.
as §2
The IC50 values for percent inhibition versus compound concentration were determined by fitting the inhibition curves using a four-parameter variable slope model in GraphPad Prism® 8.

[3] = substrate TMP-pNP, 20 ng human soluble ENPP1, Tris buffer pH 9.5, read-out: TMP-pNP (IC50)

Row | IC50 (human soluble ENPP1 [1]) | IC50 (human soluble ENPP1 [2]) | SMILES | other results
1 | 0.74 nM | – | COCCn1c(=O)n(Cc2c(F)cc(S(N)(=O)=O)cc2F)c2c3ccc(OC)nc3ncc21 [Compound 132, 3,5-difluoro-4-((7-methoxy-3-(2-methoxyethyl)-2-oxo-2,3-dihydro-1H-imidazo[4,5-c][1,8]naphthyridin-1-yl)methyl)benzenesulfonamide] | inhibition at 20 µM (ENPP-1, MDA-MB-231 cells): 87%; IC50 (human soluble ENPP1 [2]; [3]): 0.33 nM
2 | – | 7.7 nM | COc1cc2ncc3ncn(CC4CCN(S(N)(=O)=O)CC4)c3c2cc1OC [Compound 32, 4-((7,8-dimethoxy-1H-imidazo[4,5-c]quinolin-1-yl)methyl)piperidine-1-sulfonamide] | –
3 | 199 nM | 62 nM | COc1nc2nc(C)c3nc(C)n(Cc4ncc(S(N)(=O)=O)cn4)c3c2cc1Cl [Compound 91b, 2-((6-chloro-7-methoxy-2,4-dimethyl-1H-imidazo[4,5-c][1,8]naphthyridin-1-yl)methyl)pyrimidine-5-sulfonamide] | –
4 | 7.2 nM | 1.7 nM | COc1ccc2c(ncc3nc(OC)n(Cc4ccc(S(N)(=O)=O)c(F)c4)c32)n1 [Compound 78, 4-((2,7-dimethoxy-1H-imidazo[4,5-c][1,8]naphthyridin-1-yl)methyl)-2-fluorobenzenesulfonamide] | –
5 | 79 nM | 43 nM | CNS(=O)(=O)c1cc(F)c(Cn2c(=O)[nH]c3cnc4nc(OC)ccc4c32)c(F)c1 [Compound 107, 3,5-difluoro-4-((7-methoxy-2-oxo-2,3-dihydro-1H-imidazo[4,5-c][1,8]naphthyridin-1-yl)methyl)-N-methylbenzenesulfonamide] | –
6 | – | 884 nM | COc1cc2ncc3nnc(-c4ccc(CNS(N)(=O)=O)cc4)n3c2cc1OC [Compound 51, 4-(7,8-dimethoxy-[1,2,4]triazolo[4,3-a]quinoxalin-1-yl)benzyl sulfamide] | –
7 | 0.16 nM | – | COc1ccc2c(ncc3nc(C)n(Cc4c(F)cc(S(N)(=O)=O)cc4F)c32)n1 [Compound 130, 3,5-difluoro-4-((7-methoxy-2-methyl-1H-imidazo[4,5-c][1,8]naphthyridin-1-yl)methyl)benzenesulfonamide] | IC50 (human soluble ENPP1 [2]; [3]): 0.16 nM

Further lines, the molecule ahead of its results:

Row | SMILES | IC50 (human soluble ENPP1 [1]) | IC50 (human soluble ENPP1 [2]) | other results
8 | COc1ccc2c(ncc3ncn(Cc4c(F)cc(S(N)(=O)=O)cc4F)c32)n1 [Compound 129, 3,5-difluoro-4-((7-methoxy-1H-imidazo[4,5-c][1,8]naphthyridin-1-yl)methyl)benzenesulfonamide] | 0.19 nM | 0.1 nM | –
9 | COc1cc2ncc3nnn(Cc4ccc(S(N)(=O)=O)cc4)c3c2cc1OC [Compound 13, 4-((7,8-dimethoxy-1H-[1,2,3]triazolo[4,5-c]quinolin-1-yl)methyl)benzenesulfonamide] | 33 nM | 4.3 nM | –
10 | COc1cc2ncc3c(c2cc1OC)n(Cc1ccc(S(N)(=O)=O)cc1)c(=O)n3C [Compound 2, 4-((7,8-dimethoxy-3-methyl-2-oxo-2,3-dihydro-1H-imidazo[4,5-c]quinolin-1-yl)methyl)benzenesulfonamide] | – | 10 nM | –
11 | COc1cc2ncc3ncn([C@@H](C)c4ccc(S(N)(=O)=O)cc4)c3c2cc1OC [Compound 11b, (S)-4-(1-(7,8-dimethoxy-1H-imidazo[4,5-c]quinolin-1-yl)ethyl)benzenesulfonamide] | – | 196 nM | –
12 | COc1ccc2c(ncc3[nH]c(=O)n(Cc4c(F)cc(C(N)=O)cc4F)c32)n1 [Compound 109, 3,5-difluoro-4-((7-methoxy-2-oxo-2,3-dihydro-1H-imidazo[4,5-c][1,8]naphthyridin-1-yl)methyl)benzamide] | – | – | IC50 (ENPP-1, MDA-MB-231 cells): > 20000 nM; inhibition at 20 µM (ENPP-1, MDA-MB-231 cells): 11%
13 | COc1ccc2c(ncc3[nH]c(=O)n(Cc4cc(F)c(S(N)(=O)=O)c(F)c4)c32)n1 [Compound 100, 2,6-difluoro-4-((7-methoxy-2-oxo-2,3-dihydro-1H-imidazo[4,5-c][1,8]naphthyridin-1-yl)methyl)benzenesulfonamide] | – | 8.8 nM | –
14 | COc1cc2ncc3ncn(Cc4ccc(S(N)(=O)=O)cc4)c3c2cn1 [Compound 50, 4-((7-methoxy-1H-imidazo[4,5-c][1,6]naphthyridin-1-yl)methyl)benzenesulfonamide] | – | 28 nM | –
15 | CCCC(=O)NS(=O)(=O)c1cc(F)c(Cn2c(=O)[nH]c3cnc4nc(OC)ccc4c32)c(F)c1 [Compound 106, sodium butyryl((3,5-difluoro-4-((7-methoxy-2-oxo-2,3-dihydro-1H-imidazo[4,5-c][1,8]naphthyridin-1-yl)methyl)phenyl)sulfonyl)amide] | – | – | IC50 (ENPP-1, MDA-MB-231 cells): > 6700 nM; inhibition at 20 µM (ENPP-1, MDA-MB-231 cells): 57%
16 | COc1ccc2c(c1)ncc1[nH]c(=O)n([C@H](C)c3ccc(S(N)(=O)=O)cc3)c12 [Compound 8, (R)-4-(1-(7-methoxy-2-oxo-2,3-dihydro-1H-imidazo[4,5-c]quinolin-1-yl)ethyl)benzenesulfonamide] | – | 0.3 nM | –
17 | COc1cc2ncc3ncn(Cc4cccc(S(N)(=O)=O)c4)c3c2cc1OC [Compound 37, 3-((7,8-dimethoxy-1H-imidazo[4,5-c]quinolin-1-yl)methyl)benzenesulfonamide] | – | 165 nM | –
18 | COc1cc2ncc3nnc(Cc4ccc(S(N)(=O)=O)cc4)n3c2cc1OC [Compound 44, 4-((7,8-dimethoxy-2λ^2,10λ^4-[1,2,4]triazolo[4,3-a]quinoxalin-1-yl)methyl)benzenesulfonamide] | – | 65 nM | –
19 | COc1ccc2c(ncc3[nH]c(=O)n(Cc4ccc(CS(N)(=O)=O)cc4)c32)n1 [Compound 128, (4-((7-Methoxy-2-oxo-2,3-dihydro-1H-imidazo[4,5-c][1,8]naphthyridin-1-yl)methyl)phenyl)-methanesulfonamide] | – | – | inhibition at 20 µM (ENPP-1, MDA-MB-231 cells): 82%
20 | COc1ccc2c(ncc3[nH]c(=O)n(Cc4c(F)cc(NS(N)(=O)=O)cc4F)c32)n1 [Compound 138] | 141 nM | 38 nM | –
